Laboratory results as given in paper PMC3106281 (Analytical biochemistry, 2010).
≈ marks a conversion by molar mass, not a printed value. Like-named read-outs stand apart in the source and are kept apart here. Bridge positions count the residues as written; N and C are the ends. Square brackets hold non-standard residues; d marks the D form. Peptide text beside a SMILES is read from it. * marks the point of attachment. X1 = CC[C@H](C)CCCCC(=O)*; Dab = NCC[C@H](N)C(=O)O

Legend:
A. baumannii ATCC 19606 = type: cell-based, Acinetobacter baumannii; conditions: broth microdilution
[1] = test system: colistin-resistant A. baumannii clinical isolate; type: cell-based, Acinetobacter baumannii; conditions: broth microdilution
[2] = test system: colistin-resistant P. aeruginosa clinical isolate; type: cell-based, Pseudomonas aeruginosa; conditions: broth microdilution, two replicates
K. pneumoniae ATCC 13883 = type: cell-based, Klebsiella pneumoniae; conditions: broth microdilution
[3] = test system: colistin-resistant K. pneumoniae clinical isolate; type: cell-based, Klebsiella pneumoniae; conditions: broth microdilution
[4] = Isothermal titration calorimetry; type: binding, Escherichia coli; conditions: ITC, 37°C
[5] = ref [52], cited from earlier work
[6] = above the Tc; ref [54]; cited from earlier work
[7] = Fluorometric assay, purified LPS; type: binding; conditions: E. coli, K. pneumoniae, S. enterica (and P. aeruginosa) LPS
bacteria = conditions: ref [47]; [48]; cited from earlier work

Molecule: CC[C@H](C)CCCCC(=O)N[C@@H](CCN)C(=O)N[C@H](C(=O)N[C@@H](CCN)C(=O)N[C@H]1CCNC(=O)[C@H]([C@@H](C)O)NC(=O)[C@H](CCN)NC(=O)[C@H](CCN)NC(=O)[C@H](CC(C)C)NC(=O)[C@@H](CC(C)C)NC(=O)[C@H](CCN)NC1=O)[C@@H](C)O [Colistin, colistin] (X1-[Dab]T[Dab][Dab][Dab][dL]L[Dab][Dab]T; lactam 4-C (inferred); N-terminus assumed)
- MIC (A. baumannii ATCC 19606): 1 µg/mL (≈ 0.855 µM)
- MIC [1]: 16 µg/mL (≈ 13.7 µM)
- MIC [2]: > 128 µg/mL
- MIC (K. pneumoniae ATCC 13883): 1 µg/mL (≈ 0.855 µM)
- MIC [3]: > 128 µg/mL

Molecule: polymyxin B [PmB]
- Absolute peptide concentration in the cell where saturation began ([4]; LPS 125 μM, 14th injection (PmB), 18th injection (DPmB3)): 98 µM
- ΔH1 ([4]; first set of sites, 20 mM HEPES pH 7.0, two-site model): -1.5 ± 0.4 kcal/mol
- ΔS1 ([4]; first set of sites, calculated from ΔH and ΔG0): 6.9 kcal/mol
- ΔH2 ([4]; second set of sites, 20 mM HEPES pH 7.0, two-site model): -12 ± 3.7 kcal/mol
- ΔS2 ([4]; second set of sites, calculated from ΔH and ΔG0): -1.8 kcal/mol
- Calorimetric reaction with LPS ([5]; temperatures ≤30°C, below Tc of LPS): endothermic
- Calorimetric reaction with LPS ([5]; ≥35°C, above phase transition temperature, [53]): exothermic
- Calorimetric reaction with LPS [6]: endothermic

Molecule: polymyxin B nonapeptide [PBN]
- Binding affinity for isolated LPS, comparison in words [7]: lowest binding affinity for LPS
- Antibacterial activity (bacteria): negligible antibacterial activity
